Measured values from US10870647B2, “Imidazopyridine derivative, method for preparing same, and pharmaceutical composition containing same as active ingredient for preventing or treating cancer” (DAEGU-GYEONGBUK MEDICAL INNOVATION FOUNDATION, priority 2016, dated 2020).

Columns and labels:
Test in all cases: Kinase selectivity, scanMAX Kinase assay panel (DiscoverX), % control at 1 uM
Format in all cases: binding
[1] = molecular target: T1, scanMAX Kinase assay panel (Homo sapiens, UniProt Q8NE63); settings: HIPK4; 1 uM; read-out: Percent Control (%)
T1 construct: purchased DiscoverX
T1 sequence (Q8NE63 1-616): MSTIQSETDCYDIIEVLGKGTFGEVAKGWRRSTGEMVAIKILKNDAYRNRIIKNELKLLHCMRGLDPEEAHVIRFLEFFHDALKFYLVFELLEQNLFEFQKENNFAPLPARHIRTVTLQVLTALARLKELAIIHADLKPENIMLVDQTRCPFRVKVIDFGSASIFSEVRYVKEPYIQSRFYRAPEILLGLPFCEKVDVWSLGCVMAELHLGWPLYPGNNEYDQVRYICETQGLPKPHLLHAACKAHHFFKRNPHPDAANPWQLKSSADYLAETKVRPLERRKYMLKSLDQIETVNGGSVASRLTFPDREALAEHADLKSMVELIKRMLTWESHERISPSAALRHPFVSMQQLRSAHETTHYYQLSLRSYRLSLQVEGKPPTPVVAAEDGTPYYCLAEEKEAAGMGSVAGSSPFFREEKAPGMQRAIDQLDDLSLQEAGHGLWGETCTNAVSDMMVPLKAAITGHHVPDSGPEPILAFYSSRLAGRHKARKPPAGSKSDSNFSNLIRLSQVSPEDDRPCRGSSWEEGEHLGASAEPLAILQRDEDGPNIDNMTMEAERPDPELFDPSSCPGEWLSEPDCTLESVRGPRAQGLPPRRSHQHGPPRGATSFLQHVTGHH
Method: (§1) The following experiment was performed to evaluate the inhibitory activity of the compound of the present invention on more enzymes.
(§2) Particularly, among the compounds of the present invention, the compounds of Example 1, Example 12 and Example 78 were selected and assigned to DiscoverX to measure the kinase selectivity. The experiment was performed by using scanMAX™ Kinase assay panel.
(§3) At this time, the concentration of the drug to be treated to the enzyme was adjusted to 1 uM in DMSO, and the control percentage (% control) was determined according to the following Equation 1. [Example Compound−Positive Control/Negative Control−Positive Control]×100 [Equation 1]
(§4) The enzyme selectivity of the compound of the present invention was judged to be active for the enzyme if the % control was <35 (i.e. less than 35%) for each enzyme.

[2] = molecular target: T2, scanMAX Kinase assay panel (Homo sapiens, UniProt P35916); settings: FLT4; 1 uM; read-out: Percent Control (%)
T2 construct: purchased DiscoverX
Method: as §1, §2, §3, §4

[3] = molecular target: T3, scanMAX Kinase assay panel (Homo sapiens, UniProt Q52WX2); settings: SBK1; 1 uM; read-out: Percent Control (%)
T3 construct: purchased DiscoverX
Method: as §1, §2, §3, §4

[4] = molecular target: T4, scanMAX Kinase assay panel (Homo sapiens, UniProt P52564); settings: MEK6; 1 uM; read-out: Percent Control (%)
T4 construct: purchased DiscoverX
T4 sequence (P52564 1-334): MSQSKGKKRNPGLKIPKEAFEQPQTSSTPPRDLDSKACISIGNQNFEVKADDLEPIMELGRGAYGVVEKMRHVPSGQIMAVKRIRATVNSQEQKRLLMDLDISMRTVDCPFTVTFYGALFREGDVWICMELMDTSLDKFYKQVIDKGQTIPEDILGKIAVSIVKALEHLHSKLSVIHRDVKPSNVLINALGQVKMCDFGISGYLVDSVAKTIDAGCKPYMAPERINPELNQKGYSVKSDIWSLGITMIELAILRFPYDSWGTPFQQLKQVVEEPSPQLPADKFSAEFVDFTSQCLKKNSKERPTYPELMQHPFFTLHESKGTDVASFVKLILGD
Method: as §1, §2, §3, §4

[5] = molecular target: T5, scanMAX Kinase assay panel (Homo sapiens, UniProt P10721, D816H); settings: KIT (D816H); 1 uM; read-out: Percent Control (%)
T5 construct: purchased DiscoverX
Method: as §1, §2, §3, §4

[6] = molecular target: T6, scanMAX Kinase assay panel (Homo sapiens, UniProt O14730); settings: RIOK3; 1 uM; read-out: Percent Control (%)
T6 construct: purchased DiscoverX
T6 sequence (O14730 1-519): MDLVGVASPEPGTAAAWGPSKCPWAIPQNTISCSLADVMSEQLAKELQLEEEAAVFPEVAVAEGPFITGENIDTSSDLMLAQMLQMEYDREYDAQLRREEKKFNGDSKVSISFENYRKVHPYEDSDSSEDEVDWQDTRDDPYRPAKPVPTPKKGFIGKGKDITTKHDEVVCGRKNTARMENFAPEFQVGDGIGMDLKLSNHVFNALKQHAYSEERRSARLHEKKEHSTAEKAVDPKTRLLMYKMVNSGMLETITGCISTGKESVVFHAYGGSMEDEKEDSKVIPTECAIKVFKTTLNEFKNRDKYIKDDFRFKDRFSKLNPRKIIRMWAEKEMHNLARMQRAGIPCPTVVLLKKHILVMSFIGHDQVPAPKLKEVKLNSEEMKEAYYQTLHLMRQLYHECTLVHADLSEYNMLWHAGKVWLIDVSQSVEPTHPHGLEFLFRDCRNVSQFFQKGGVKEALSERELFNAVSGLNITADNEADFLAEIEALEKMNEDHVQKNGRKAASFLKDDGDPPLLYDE
Method: as §1, §2, §3, §4

[7] = molecular target: T7, scanMAX Kinase assay panel (Homo sapiens, UniProt Q9H3Y6); settings: SRMS; 1 uM; read-out: Percent Control (%)
T7 construct: purchased DiscoverX
Method: as §1, §2, §3, §4

[8] = molecular target: T8, scanMAX Kinase assay panel (Homo sapiens, UniProt Q8N752); settings: CSNK1A1L; 1 uM; read-out: Percent Control (%)
T8 construct: purchased DiscoverX
T8 sequence (Q8N752 1-337): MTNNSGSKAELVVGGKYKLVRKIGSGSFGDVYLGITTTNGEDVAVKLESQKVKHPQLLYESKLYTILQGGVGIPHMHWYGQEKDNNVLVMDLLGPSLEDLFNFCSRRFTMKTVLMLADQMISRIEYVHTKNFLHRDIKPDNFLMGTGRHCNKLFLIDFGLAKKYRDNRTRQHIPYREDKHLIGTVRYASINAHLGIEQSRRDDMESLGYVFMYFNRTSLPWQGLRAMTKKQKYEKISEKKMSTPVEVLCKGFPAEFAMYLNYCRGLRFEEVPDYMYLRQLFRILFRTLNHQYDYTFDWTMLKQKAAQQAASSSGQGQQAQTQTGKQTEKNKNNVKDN
Method: as §1, §2, §3, §4

[9] = molecular target: T9, scanMAX Kinase assay panel (Homo sapiens, UniProt P08922); settings: ROS1; 1 uM; read-out: Percent Control (%)
T9 construct: purchased DiscoverX
Method: as §1, §2, §3, §4

T7 sequence (Q9H3Y6 whole entry): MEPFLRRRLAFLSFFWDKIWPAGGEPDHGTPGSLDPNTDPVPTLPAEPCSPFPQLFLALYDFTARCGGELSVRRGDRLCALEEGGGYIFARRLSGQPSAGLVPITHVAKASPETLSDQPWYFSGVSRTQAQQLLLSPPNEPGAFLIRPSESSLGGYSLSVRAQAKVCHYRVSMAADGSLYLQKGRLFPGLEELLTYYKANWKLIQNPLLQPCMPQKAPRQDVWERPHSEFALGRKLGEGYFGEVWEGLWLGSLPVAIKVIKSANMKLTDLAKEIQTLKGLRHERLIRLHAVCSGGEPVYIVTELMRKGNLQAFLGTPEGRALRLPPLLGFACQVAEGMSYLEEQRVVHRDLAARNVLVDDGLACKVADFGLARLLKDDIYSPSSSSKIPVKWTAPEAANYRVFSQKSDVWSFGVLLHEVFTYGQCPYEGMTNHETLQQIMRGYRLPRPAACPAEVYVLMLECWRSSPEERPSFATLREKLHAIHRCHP
T3 sequence (Q52WX2 whole entry): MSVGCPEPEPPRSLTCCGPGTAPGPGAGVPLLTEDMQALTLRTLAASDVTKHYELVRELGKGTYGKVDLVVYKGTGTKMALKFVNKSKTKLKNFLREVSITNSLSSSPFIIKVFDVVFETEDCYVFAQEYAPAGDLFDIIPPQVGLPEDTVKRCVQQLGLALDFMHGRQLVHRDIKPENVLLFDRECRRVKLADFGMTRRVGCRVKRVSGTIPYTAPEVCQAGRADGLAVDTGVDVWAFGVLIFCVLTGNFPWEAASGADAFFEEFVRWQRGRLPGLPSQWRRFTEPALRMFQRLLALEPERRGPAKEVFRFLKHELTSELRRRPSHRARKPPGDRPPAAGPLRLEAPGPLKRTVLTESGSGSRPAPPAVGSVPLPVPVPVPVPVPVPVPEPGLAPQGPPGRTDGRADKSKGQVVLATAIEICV
T5 sequence (P10721 26-976 D816H): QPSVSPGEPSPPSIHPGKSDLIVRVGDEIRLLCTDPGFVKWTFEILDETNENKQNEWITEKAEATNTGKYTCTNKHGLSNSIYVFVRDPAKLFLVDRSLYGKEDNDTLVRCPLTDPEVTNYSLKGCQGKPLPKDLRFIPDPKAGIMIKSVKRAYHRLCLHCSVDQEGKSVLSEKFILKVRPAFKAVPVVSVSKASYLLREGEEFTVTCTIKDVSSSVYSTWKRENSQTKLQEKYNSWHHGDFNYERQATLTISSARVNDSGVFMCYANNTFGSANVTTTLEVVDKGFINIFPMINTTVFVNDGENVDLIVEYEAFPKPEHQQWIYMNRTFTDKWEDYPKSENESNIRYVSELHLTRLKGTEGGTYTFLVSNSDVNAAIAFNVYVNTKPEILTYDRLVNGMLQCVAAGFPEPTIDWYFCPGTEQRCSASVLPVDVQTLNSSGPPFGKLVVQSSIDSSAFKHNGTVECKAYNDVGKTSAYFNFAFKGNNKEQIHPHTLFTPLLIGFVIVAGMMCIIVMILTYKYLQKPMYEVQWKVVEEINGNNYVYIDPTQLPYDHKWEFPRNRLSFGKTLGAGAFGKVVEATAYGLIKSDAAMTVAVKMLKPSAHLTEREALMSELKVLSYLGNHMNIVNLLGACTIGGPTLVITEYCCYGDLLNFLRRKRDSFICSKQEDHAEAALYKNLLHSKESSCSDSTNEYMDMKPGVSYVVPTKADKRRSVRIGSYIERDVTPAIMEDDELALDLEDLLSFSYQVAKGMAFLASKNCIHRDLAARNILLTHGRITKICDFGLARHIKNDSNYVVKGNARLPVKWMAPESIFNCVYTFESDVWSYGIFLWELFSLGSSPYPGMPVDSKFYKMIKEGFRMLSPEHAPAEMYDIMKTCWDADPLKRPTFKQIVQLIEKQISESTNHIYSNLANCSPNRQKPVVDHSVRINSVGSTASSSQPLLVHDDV
T9 sequence (P08922 28-2347): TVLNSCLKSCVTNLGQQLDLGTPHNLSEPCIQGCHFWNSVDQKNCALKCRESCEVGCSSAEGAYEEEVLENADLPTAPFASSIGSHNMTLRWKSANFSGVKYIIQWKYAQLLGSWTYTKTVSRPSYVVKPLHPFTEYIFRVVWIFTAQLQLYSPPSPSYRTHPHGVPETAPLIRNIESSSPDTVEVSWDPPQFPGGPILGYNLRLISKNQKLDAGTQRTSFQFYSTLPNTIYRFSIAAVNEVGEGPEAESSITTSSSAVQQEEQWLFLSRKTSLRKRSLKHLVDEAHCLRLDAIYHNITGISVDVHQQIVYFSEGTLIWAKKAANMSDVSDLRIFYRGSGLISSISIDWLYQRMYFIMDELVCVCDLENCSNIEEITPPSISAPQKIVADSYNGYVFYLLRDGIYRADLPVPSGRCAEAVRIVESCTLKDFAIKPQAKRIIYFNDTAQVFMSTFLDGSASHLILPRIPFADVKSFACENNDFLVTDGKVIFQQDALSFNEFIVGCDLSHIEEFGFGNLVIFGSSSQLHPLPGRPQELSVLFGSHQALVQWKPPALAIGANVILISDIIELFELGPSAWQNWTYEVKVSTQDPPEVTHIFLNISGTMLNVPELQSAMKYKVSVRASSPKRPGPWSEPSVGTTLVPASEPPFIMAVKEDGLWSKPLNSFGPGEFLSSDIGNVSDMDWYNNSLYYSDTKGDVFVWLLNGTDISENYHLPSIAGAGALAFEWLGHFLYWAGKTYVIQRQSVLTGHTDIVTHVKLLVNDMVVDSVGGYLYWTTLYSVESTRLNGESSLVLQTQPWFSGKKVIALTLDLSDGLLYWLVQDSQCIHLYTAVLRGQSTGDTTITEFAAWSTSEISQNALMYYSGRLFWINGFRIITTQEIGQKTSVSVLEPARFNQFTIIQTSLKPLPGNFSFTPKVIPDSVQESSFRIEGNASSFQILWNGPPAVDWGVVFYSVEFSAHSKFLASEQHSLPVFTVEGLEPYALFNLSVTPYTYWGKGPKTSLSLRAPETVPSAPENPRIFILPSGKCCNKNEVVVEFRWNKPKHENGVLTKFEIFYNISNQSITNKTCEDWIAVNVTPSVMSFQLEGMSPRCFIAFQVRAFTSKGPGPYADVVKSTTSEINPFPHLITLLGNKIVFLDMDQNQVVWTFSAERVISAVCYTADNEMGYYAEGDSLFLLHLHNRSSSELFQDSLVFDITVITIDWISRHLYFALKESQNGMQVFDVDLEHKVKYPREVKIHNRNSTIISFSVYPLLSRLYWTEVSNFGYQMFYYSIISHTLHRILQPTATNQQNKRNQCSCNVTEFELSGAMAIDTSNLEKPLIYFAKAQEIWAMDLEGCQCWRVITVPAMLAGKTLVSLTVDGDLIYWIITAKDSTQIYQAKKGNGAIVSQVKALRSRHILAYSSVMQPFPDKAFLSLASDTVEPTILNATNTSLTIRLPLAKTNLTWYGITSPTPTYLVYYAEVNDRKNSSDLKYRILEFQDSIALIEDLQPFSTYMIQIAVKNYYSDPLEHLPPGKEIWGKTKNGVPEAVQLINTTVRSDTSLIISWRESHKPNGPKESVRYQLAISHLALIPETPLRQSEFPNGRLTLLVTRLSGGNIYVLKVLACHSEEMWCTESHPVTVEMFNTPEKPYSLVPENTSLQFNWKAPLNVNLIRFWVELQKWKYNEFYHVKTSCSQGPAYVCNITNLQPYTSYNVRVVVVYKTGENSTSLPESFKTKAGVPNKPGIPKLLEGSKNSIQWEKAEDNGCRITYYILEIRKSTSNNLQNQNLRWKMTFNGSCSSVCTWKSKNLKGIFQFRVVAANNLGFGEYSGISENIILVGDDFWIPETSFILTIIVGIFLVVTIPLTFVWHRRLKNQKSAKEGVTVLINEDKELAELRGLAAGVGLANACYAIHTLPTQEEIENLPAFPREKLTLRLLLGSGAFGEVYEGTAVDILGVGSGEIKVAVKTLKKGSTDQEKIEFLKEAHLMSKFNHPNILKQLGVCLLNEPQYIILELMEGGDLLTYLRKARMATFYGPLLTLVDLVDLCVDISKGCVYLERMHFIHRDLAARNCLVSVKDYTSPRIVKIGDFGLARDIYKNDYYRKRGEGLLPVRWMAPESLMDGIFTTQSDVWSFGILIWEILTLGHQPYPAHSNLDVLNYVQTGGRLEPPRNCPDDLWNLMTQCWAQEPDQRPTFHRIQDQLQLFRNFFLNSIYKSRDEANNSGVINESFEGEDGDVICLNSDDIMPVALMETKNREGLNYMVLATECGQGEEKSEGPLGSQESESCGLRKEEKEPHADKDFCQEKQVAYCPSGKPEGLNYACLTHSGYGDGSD

Cc1ccc(NC(=O)C2(C(=O)Nc3ccc(F)cc3)CC2)cc1C#Cc1cnc2c(Nc3cnn(C(C)C)c3)cccn12 [Example 78]
remaining binding at 1 µM [1]: 84%
remaining binding at 1 µM [2]: 26%
remaining binding at 1 µM [3]: 100%
remaining binding at 1 µM [4]: 100%
remaining binding at 1 µM [5]: 63%
remaining binding at 1 µM [6]: 95%
remaining binding at 1 µM [7]: 94%
remaining binding at 1 µM [8]: 100%
remaining binding at 1 µM [9]: 92%

Cc1cn(-c2cc(NC(=O)c3ccc(C)c(C#Cc4cnc5c(Nc6cnn(C)c6)cccn45)c3)cc(C(F)(F)F)c2)cn1 [Example 12, 4-methyl-N-(3-(4-methyl-1H-imidazol-1-yl)-5-(trifluoromethyl)phenyl)-3-((8-((1-methyl-1H-pyrazol-4-yl)amino)imidazo[1,2-a]pyridin-3-yl)ethynyl)benzamide]
remaining binding at 1 µM [1]: 66%
remaining binding at 1 µM [2]: 6%
remaining binding at 1 µM [3]: 94%
remaining binding at 1 µM [4]: 89%
remaining binding at 1 µM [5]: 70%
remaining binding at 1 µM [6]: 96%
remaining binding at 1 µM [7]: 75%
remaining binding at 1 µM [8]: 70%
remaining binding at 1 µM [9]: 51%

Cc1ccc(C(=O)Nc2ccc(CN3CCN(C)CC3)c(C(F)(F)F)c2)cc1C#Cc1cnc2c(Nc3cnn(C)c3)cccn12 [Example 1, 4-methyl-3-((8-((1-methyl-1H-pyrazol-4-yl)amino)imidazo[1,2-a]pyridin-3-yl)ethynyl)-N-(4-((4-methylpiperazin-1-yl)methyl)-3-(trifluoromethyl)phenyl)benzamide]
remaining binding at 1 µM [1]: 2%
remaining binding at 1 µM [2]: 1%
remaining binding at 1 µM [3]: 89%
remaining binding at 1 µM [4]: 86%
remaining binding at 1 µM [5]: 7%
remaining binding at 1 µM [6]: 94%
remaining binding at 1 µM [7]: 8%
remaining binding at 1 µM [8]: 93%
remaining binding at 1 µM [9]: 39%
